PubChem BioAssay (NCI)
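How tested: cells in 96-well plates exposed to compound for 48 hours at five concentrations. TGI marks complete inhibition of growth.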

Tests used:
Experiment in all cases: NCI tumour cell line growth inhibition, 48 h
OVCAR-3 ovarian = test system: OVCAR-3 ovarian
SF-268 CNS = test system: SF-268 CNS
HS 578T breast = test system: HS 578T breast
SR leukemia = test system: SR leukemia
U251 CNS = test system: U251 CNS
NCI-H460 lung = test system: NCI-H460 lung
RPMI-8226 leukemia = test system: RPMI-8226 leukemia
HOP-92 NSCLC = test system: HOP-92 NSCLC
SNB-75 CNS = test system: SNB-75 CNS
SK-MEL-28 melanoma = test system: SK-MEL-28 melanoma
HT29 colon = test system: HT29 colon
HCT-116 colon = test system: HCT-116 colon
NCI-H226 lung = test system: NCI-H226 lung
OVCAR-5 ovarian = test system: OVCAR-5 ovarian
DU-145 prostate = test system: DU-145 prostate
SW-620 colon = test system: SW-620 colon
UACC-257 melanoma = test system: UACC-257 melanoma
NCI-H23 lung = test system: NCI-H23 lung
SK-OV-3 ovarian = test system: SK-OV-3 ovarian
MALME-3M melanoma = test system: MALME-3M melanoma

SMILES	TGI (OVCAR-3 ovarian) [µM]	TGI (SF-268 CNS) [µM]	TGI (HS 578T breast) [µM]	TGI (SR leukemia) [µM]	TGI (U251 CNS) [µM]	TGI (NCI-H460 lung) [µM]	TGI (RPMI-8226 leukemia) [µM]	TGI (HOP-92 NSCLC) [µM]	TGI (SNB-75 CNS) [µM]	TGI (SK-MEL-28 melanoma) [µM]	TGI (HT29 colon) [µM]	TGI (HCT-116 colon) [µM]	TGI (NCI-H226 lung) [µM]	TGI (OVCAR-5 ovarian) [µM]	TGI (DU-145 prostate) [µM]	TGI (SW-620 colon) [µM]	TGI (UACC-257 melanoma) [µM]	TGI (NCI-H23 lung) [µM]	TGI (SK-OV-3 ovarian) [µM]	TGI (MALME-3M melanoma) [µM]
O=[N+]([O-])c1ccc(S(=O)(=O)n2c3ccc(Br)cc3c3nc4ccccc4nc32)cc1	> 100	> 100	> 100	> 100	> 100	> 100	> 100	> 100	> 100	> 100	> 100	> 100	> 100	> 100	> 100	> 100	> 100	> 100	–	–
CCCCC1Cc2ccccc2-c2nc3ccccc3n21 (stereo unspecified)	30.3	33	35.4	24.3	30.9	28.8	32.5	30.8	–	31	29.6	26.6	39.5	31.4	38.1	33.9	32.2	32	37.5	–
CCC(=O)Oc1ccc2c(c1)c(=O)c1c(NCCCN(C)C)ccc3nnn2c31	21	17.2	21.6	6.01	17	9.23	7.16	21.3	–	23.9	11.6	14.4	11.8	22.6	16.7	13.5	23.4	20.3	18.9	17
C[N+]1(C)CCc2cc(O)c(O)cc2C1Cc1ccc(O)c(O)c1 (stereo unspecified)	> 100	> 100	> 100	86.1	> 100	> 100	65.9	63.7	–	> 100	> 100	47.8	> 100	> 100	> 100	76.7	86.9	> 100	> 100	91.4
CN(C)CCCN=c1c2ccccc2n(O)c2ccccc12	> 100	> 100	> 100	–	> 100	> 100	> 100	> 100	> 100	> 100	28.8	> 100	72.7	> 100	> 100	> 100	> 100	> 100	> 100	> 100
C[C@@H](c1ccccc1)n1c(N)c(C#N)c2ccc([N+](=O)[O-])cc2c1=O	–	> 100	69.4	12.2	59.1	36	–	24	46.2	39.5	28.1	28.8	13.2	–	33	48.3	40.3	43	–	–
CC(=O)OC1C(Oc2c(C)cc3c(c2O)[C@@H](C)CC[C@@H]3[C@@H](C)CCC=C(C)C)OCC(O)C1O (stereo partly specified)	29.8	33.1	47.4	47.3	32.3	33.2	–	–	–	–	27.6	32.2	40.6	30.6	29.8	33.8	35.6	34.3	38.1	–
CSc1nnc(SC)nn1	31.6	29.4	77.1	–	41.8	32.9	32.7	14.8	31.2	–	36.5	23.9	96.5	33.6	45.4	35.5	30.3	49.4	49	27
COC1=C(OC)C(=O)C(Cc2c(C)nc3sccn23)=C(C)C1=O	34.3	37.3	58.5	38.9	33.1	61.5	24.7	–	–	23.3	32.2	64.2	–	34.6	38.6	34.8	20.7	29.5	26.8	31
CC1(C)OC(=O)N(c2ccccc2)C12C=Cc1cc([N+](=O)[O-])ccc1O2 (stereo unspecified)	> 100	> 100	> 100	75.3	> 100	> 100	> 100	86.9	> 100	> 100	> 100	> 100	> 100	> 100	> 100	> 100	77	> 100	66.4	–
CCOC(=O)C1C(=O)CC1(C)C (stereo unspecified)	> 10	> 10	> 10	> 10	> 10	> 10	> 10	> 10	–	> 10	> 10	> 10	> 10	> 10	> 10	> 10	> 10	> 10	> 10	> 10
Cc1ccc(S(=O)(=O)N/N=C2/CCCOC2)cc1	> 100	> 100	> 100	> 100	> 100	> 100	> 100	> 100	–	> 100	> 100	> 100	> 100	> 100	> 100	> 100	> 100	> 100	> 100	> 100
COc1cc(Br)cc2cc(-c3cn4c(n3)sc3ccccc34)c(=O)oc12	54.5	> 75	39.9	> 75	72.1	> 75	49.8	47.5	–	–	> 75	> 75	–	> 75	48.1	> 75	> 75	> 75	> 75	–
